Patent US7442788B2, “Antisense molecules and method of controlling expression of gene function by using the same” (Japan Science and Technology Corporation, priority 2001, dated 2008)
Each block holds one compound with its values, some of them ahead of it.

Columns and labels:
[1] = Circular dichroism (CD) spectrum, molar ellipticity at about 270 nm as measure of base moiety orientation (syn/anti); format: physicochemical; conditions: for Δ[θ]ext: phosphate buffer minus borate buffer; for change of [θ]ext / CD peak from phosphate buffer to borate buffer (borax): phosphate vs borate buffer
Text: The molar ellipticity ([θ]max) at about 270 nm in the CD spectrum of a nucleoside reflects two factors, namely the orientation of the base moiety to the furanose moiety and the puckering of the furanose ring. It is known that the molar ellipticity at about 270 nm markedly decreases in the syn orientation as compared with the anti orientation. […]
[…] […] The rate of syn orientation induction in Urd in the presence of boric acid was smaller as compared with IPU but this can be explained by the presence of an equilibrium between the borate ester formation and the dissociation.
Specifically, CD spectra were measured with Urd, 5′-aminouridine (5′-NH2-Urd) and 5′-aminoisopropylideneuridine (5′-NH2-IPU) in phosphate buffer (pH 7.2) and with 5′-NH2-Urd in borate buffer (pH 7.2) for the investigation of uracil moiety orientations. […] This is presumably due to a syn orientation-inducing effect of hydrogen bond formation between the oxygen atom of the 2-position carbonyl group of the nucleoside base moiety and the 5′-position amino hydrogen atom. Under the measurement conditions in this case, the 5′-position amino group of 5′-NH2-Urd occurs in an ammonium ion state and presumably serves as a good hydrogen bond donor. […] This is probably due to two synergistic effects, namely the fixation of the sugar moiety to the 2′,3′-planar structure and the hydrogen bond formation between the 5′-position amino group and the 2-position carbonyl group of the base moiety.
Then, on the supposition that Urd in phosphate buffer ([θ]max value=9700) is in an ideal 100% anti orientation and 5′-NH2-IPU in phosphate buffer ([θ]max value=1200) in an ideal 100% syn orientation, the orientations of the base moiety (uracil) of uridine and uridine derivatives (5′-NH2-Urd, IPU, 5′-NH2-IPU) were evaluated under different conditions (in phosphate buffer, in borate buffer).

d(A)12 = assay: Melting temperature (Tm) of dodecameric chimera nucleic acid with complementary DNA; format: binding
Protocol: Using the above dodecameric chimera nucleic acid and a DNA having a complementary base sequence, the melting temperature Tm was measured in phosphate buffer allowing predominance of the anti orientation in the PRNA moiety.

[2] = tested on: polyadenylic acid (poly(A)); assay: Complex formation by continuous absorbance (260 nm) plotting, control by borax and sugars; format: binding
Protocol: Therefore, poly(Nγ-(5′-deoxy-5′-uridyl)-L-glutamine) PRNA1 (Production Example 1) was examined for its complex forming ability using polyadenylic acid (poly(A)) as its complementary strand. […] Then, borax was added to this PRNA1- and poly(A)-containing phosphate buffer solution, whereupon the absorbance (260 nm) increased in a concentration-dependent manner until a certain concentration, as shown by the plots ▪ in FIG. 20(a). Upon addition of borax in an amount about 3 times the amount of the PRNA1, the absorbance (260 nm) increased to be the original absorbance prior to addition of poly(A). […] Furthermore, this borate ester was in equilibrium with its anionic form even at pH 7.2.

[3] = phosphate buffer (pH 7.2), no borax, Urd = 100% anti, 5′-NH2-IPU = 100% syn supposed

[θ]max ([1]; phosphate buffer (pH 7.2)): 1200 deg cm^2dmol^−1
proportion of syn orientation of the base moiety [1, 3]: 100 % syn
Compound: 5′-aminoisopropylideneuridine [5′-NH2-IPU, reference compound]

[θ]max ([1]; borate buffer (pH 7.2)): 4900 deg cm^2dmol^−1
[θ]max ([1]; phosphate buffer (pH 7.2)): 8400 deg cm^2dmol^−1
Compound: NC[C@H]1O[C@@H](n2ccc(N)nc2=O)[C@H](O)[C@@H]1O [5′-NH2-Cyd, 5′-amino-5′-deoxycytidine]

Molar ellipticity ([θ]ext) at about 270 nm ([1]; borate buffer (pH 7.2)): 950 deg·cm2/dmol
Molar ellipticity ([θ]ext) at about 270 nm ([1]; phosphate buffer (pH 7.2)): 600 deg·cm2/dmol
Δ[θ]ext [1]: −350
Compound: Cc1cn([C@H]2C[C@H](O)[C@@H](CN)O2)c(=O)[nH]c1=O [5′-NH2-Thd [A], 5′-amino-5′-deoxythymidine, reference compound]

Compound: CC(C)(C)OC(=O)N[C@@H](CCC(=O)NC[C@H]1O[C@@H](n2ccc(=O)[nH]c2=O)[C@H](O)[C@@H]1O)C(=O)O [Boc-isoGln(5′U)-OH, N^α-t-butoxycarbonyl-N^5-(5′-deoxy-5′-uridyl)-L-isoglutamine]
proportion of syn orientation of the base moiety ([1]; borate buffer (pH 7.2)): 56 % syn

[θ]max ([1]; borate buffer (pH 7.2)): 12200 deg cm^2dmol^−1
[θ]max ([1]; phosphate buffer (pH 7.2)): 14200 deg cm^2dmol^−1
Compound: Nc1ccn([C@@H]2O[C@H](CO)[C@@H](O)[C@H]2O)c(=O)n1 [Cytidine (Cyd), Cytidine, reference compound]

[θ]max ([1]; borate buffer (pH 7.2)): 7400 deg cm^2dmol^−1
proportion of syn orientation of the base moiety ([1]; borate buffer (pH 7.2)): 27 % syn
[θ]max ([1]; phosphate buffer (pH 7.2)): 9700 deg cm^2dmol^−1
proportion of anti orientation of the base moiety ([1]; phosphate buffer (pH 7.2)): 100 % anti
Compound: O=c1ccn([C@@H]2O[C@H](CO)[C@@H](O)[C@H]2O)c(=O)[nH]1 [Urd, uridine, reference compound]

proportion of syn orientation of the base moiety ([1]; 5.5 mM borax added, phosphate buffer pH 7.2): 76 % syn
proportion of syn orientation of the base moiety ([1]; 5.5 mM borax, pH adjusted from 7.2 to 6.2): 41 % syn
proportion of syn orientation of the base moiety ([1]; borate buffer (pH 7.2)): 64 % syn
proportion of syn orientation of the base moiety [1, 3]: 39 % syn
Compound: Boc-AEG(5′U)-OH
change of CD peak at about 270 nm / orientation upon addition of borax ([1]; pH 6.0): almost no decrease in the relevant peak was observed
change of CD peak at about 270 nm / orientation upon addition of borax ([1]; pH 8.8): very efficient increase in syn orientation proportion

Molar ellipticity ([θ]ext) at about 270 nm ([1]; borate buffer (pH 7.2)): 1400 deg·cm2/dmol
Molar ellipticity ([θ]ext) at about 270 nm ([1]; phosphate buffer (pH 7.2)): 4800 deg·cm2/dmol
Δ[θ]ext [1]: 3400
Compound: Boc-isoGln(5′I)-isoGln(5′U)-OH [I-U]

Molar ellipticity ([θ]ext) at about 270 nm ([1]; phosphate buffer (pH 7.2)): 6600 deg·cm2/dmol
Δ[θ]ext [1]: 3300
Compound: Boc-isoGln(5′U)-isoGln(5′I)-OH [U-I]

change of [θ]ext / CD peak from phosphate buffer to borate buffer (borax) [1]: [θ]ext decreases
Compound: Boc-isoGln(5′U)-isoGln(5′I)-isoGln(5′U)-OH [U-I-U]

Molar ellipticity ([θ]ext) at about 270 nm ([1]; borate buffer (pH 7.2)): 1250 deg·cm2/dmol
Molar ellipticity ([θ]ext) at about 270 nm ([1]; phosphate buffer (pH 7.2)): 12300 deg·cm2/dmol
Δ[θ]ext [1]: 11050
Compound: Boc-isoGln(5′U)-isoGln(5′U)-OH [U-U]

change of [θ]ext / CD peak from phosphate buffer to borate buffer (borax) [1]: [θ]ext decreases
Compound: Boc-isoGln(5′U)-isoGln(5′U)-isoGln(5′U)-OH [U-U-U]

Compound: NH2-UUUUUUUUTTTT-3′: chimeric molecule dodecamer, PRNA(Urd) octamer amide-bonded to thymidine tetramer
change of [θ]ext / CD peak from phosphate buffer to borate buffer (borax) [1]: [θ]ext decreased
Tm (d(A)12; binding target d(A)12, 20 mM borax): <0 °C
Tm (d(A)12; binding target d(A)12, 20 mM borax, listed as (U)8DNA(T)4): < 0 °C
Tm (d(A)12; binding target d(A)12, no additive, phosphate buffer pH 7.2): 42.5 °C
Tm gain of the complex over the DNA-DNA complex (d(A)12; no additive): 19.3 °C

Compound: Poly(N^γ-(5′-deoxy-5′-uridyl)-L-glutamine) [PRNA1]
amount of xylose giving perfect 1:1 complex formation ([2]; borax 6 times the amount of PRNA1): about 20 times that of the PRNA1
absorbance at 260 nm after addition of D(+)-xylose ([2]; borax 6 times the amount of PRNA1, decrease from 1.03): 0.88
effect of D(+)-glucose in lieu of D(+)-xylose ([2]; borax-containing phosphate buffer with poly(A)): the complex is formed
absorbance at 260 nm after addition of poly(A) ([2]; borax-free phosphate buffer pH 7.2, decrease from 1): 0.88
amount of borax restoring the original absorbance (complete dissociation of complex) ([2]; phosphate buffer with PRNA1 and poly(A)): about 3 times the amount of the PRNA1
